According to patent publication US7074938B2, “Method for the synthesis of soritin compounds” (The Regents of the University of California, priority 2002, dated 2006):
Marks after values point to notes of the source that are not given here.

Legend:
Format in all cases: in vivo
[1] = test system: PMA-induced edema of the mouse ear; experiment: Inhibition of PMA-induced inflammation (edema) of the mouse ear; settings: 3 h 20 min, in mg (unit assumed)
Method: (§1) The test compound made by the method of the present invention and a known inflammatory agent, phorbol myristate acetate (PMA), are topically applied simultaneously to the left ears of mice. Three hours and 20 minutes following application, the mice are sacrificed. Both left ears and right ears are removed and standard sized bores taken. Edema (inflammation) is measured as the difference in weight between left and right ears. See Van Arman, C. G. (1974) Clin. Pharmacol. Ther. 16:900–904, which is herein incorporated by reference.
as §1, with “Soritin B and” for “The test compound made by the method of the present invention and”, “(PMA), were” for “(PMA), are”, “mice were” for “mice are”, “ears were” for “ears are”, “(inflammation) was” for “(inflammation) is”

test ears of mice = experiment: Soritin B coloration and irritation when applied to mouse ear skin
[2] = test system: RTX-induced edema of the mouse ear; experiment: Inhibition of resiniferatoxin (RTX)-induced inflammation (edema) of the mouse ear; settings: 30 min
Method: Induction of mouse ear edema can be conducted according to known methods. See Inoue, 1-f., N. Nagata, Y. Koshffiara (1993), which is herein incorporated by reference. Soritin compounds to be tested for anti-neurogenic inflammatory activity are topically applied in acetone to the ears of mice in a solution that includes the edema-causing irritant resiniferatoxin (RTX). RTX alone (0.1 μg/ear) or in combination with various dilutions of test compound are applied to both sides of the left ears (5 mice per treatment group) and acetone is applied to all right ears. After a 30-minute incubation, the mice are sacrificed, the ears removed, and bores taken and weighed. Edema is measured by subtracting the weight of the right ear (acetone control) from the weight of the left ear (treated). Results are recorded as % decrease (inhibition) or % increase (potentiation) in edema relative to the control group edema.
Soritin B was tested for anti-neurogenic inflammatory activity by topically applying in acetone to the ears of mice in a solution that includes the edema-causing irritant resiniferatoxin (RTX) as provided above. See Inoue, 1-f., N. Nagata, Y. Koshffiara (1993), which is herein incorporated by reference. Specifically, RTX alone (0.1 μg/ear) or in combination with various dilutions of Soritin B was applied to both sides of the left ears (5 mice per treatment group) and acetone was applied to all right ears. After a 30-minute incubation, the mice are sacrificed, the ears removed, and bores taken and weighed. Edema was measured by subtracting the weight of the right ear (acetone control) from the weight of the left ear (treated). Results were recorded as % decrease (inhibition) or % increase (potentiation) in edema relative to the control group edema.

COC(=O)C(c1c[nH]c2ccccc12)c1c[nH]c2ccccc12 [Soritin B, bis-(1H-indol-3-yl)-acetic acid methyl ester]
Mean edema (difference in weight between left and right ear bores) ([1]; 3.12 μg/ear topical with PMA 2.0 μg/ear): 10.0** | Mean edema (difference in weight between left and right ear bores) ([1]; 6.25 μg/ear topical with PMA 2.0 μg/ear): 9.7** | Mean edema (difference in weight between left and right ear bores) ([1]; 12.5 μg/ear topical with PMA 2.0 μg/ear): 8.6* | Mean edema (difference in weight between left and right ear bores) ([1]; 25 μg/ear topical with PMA 2.0 μg/ear): 5.9* | Mean edema (difference in weight between left and right ear bores) ([1]; 50 μg/ear topical with PMA 2.0 μg/ear): 3.4* | Redness or swelling after overnight exposure (test ears of mice; 50 μg/ear, overnight exposure, compared to controls): did not result in any discernable redness or swelling | Coloration on test ears (test ears of mice; in acetone alone and in combination with PMA or RTX, from beginning to end of the experiments): did not exhibit any discernable coloration | Mean edema (weight of left ear minus right ear bores) ([2]; 3.12 μg/ear topical in acetone with RTX 0.1 μg/ear): 9.1 | Mean edema (weight of left ear minus right ear bores) ([2]; 6.25 μg/ear topical in acetone with RTX 0.1 μg/ear): 6.5* | Mean edema (weight of left ear minus right ear bores) ([2]; 12.5 μg/ear topical in acetone with RTX 0.1 μg/ear): 3.2* | Mean edema (weight of left ear minus right ear bores) ([2]; 25 μg/ear topical in acetone with RTX 0.1 μg/ear): 1.7* | Mean edema (weight of left ear minus right ear bores) ([2]; 50 μg/ear topical in acetone with RTX 0.1 μg/ear): 1.0*
